According to PubChem BioAssay (NCI):
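Growth conditions: 96-well plates. Treatment: test compound, 48 hours, 5 concentrations. Analysis: linear interpolation between bracketing concentrations; unreached endpoints set to highest concentration. GI50 = concentration required for 50% inhibition of growth. TGI: total growth inhibition.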

Tested on: KM20L2 colon
Test: DTP human tumour cell line panel, 48 h

Compared with `COc1ccccc1C1C(C(=O)O)=C(CO)Oc2cc3c(cc21)OCO3` (stereo unspecified), `Cc1ccc(S(=O)(=O)Oc2cc(-c3ccccc3)nc3ccccc23)cc1` is lower in TGI: > 100 µM for the first, 3.52 µM for the second.

Compared with `O=C(OC(=O)n1ccc2ccccc21)n1ccc2ccccc21`, `Cc1cc(=O)[nH]c(NN2C(Cl)C(=O)C2c2cccc(O)c2)n1` (stereo unspecified) is lower in TGI: > 100 µM for the first, 98.5 µM for the second.

Going from `CC(=O)OC1CCC2(C)C3CCC4(C)C(c5ccc(=O)oc5)CC5OC54C3CCC2(O)C1` (stereo unspecified) to `O=NN(CCCl)C(=O)NC1CCSc2ccccc21` (stereo unspecified), the TGI rises from 13.2 µM to > 100 µM.

With `CC1CC=CC(O)C1` (stereo unspecified) the TGI was > 100 µM.

Tested on: PC-3 prostate
Test: DTP human tumour cell line panel, 48 h

Compared with `O=[N+]([O-])c1ccc(C=C2C(Cl)=C(Cl)C(Cl)=C2Cl)cc1`, `Cc1ccc2c(n1)C(=O)c1[nH]c3ccccc3c1C2=O` is 1.7-fold lower in GI50: 2.71 µM for the first, 1.63 µM for the second.

`Cc1nc(N)sc1-c1ccnc(Nc2ccc(N3CCOCC3)cc2)n1` was tested, and the GI50 was 1.81 µM.

First: O=[N+]([O-])c1ccc(C=C2C(Cl)=C(Cl)C(Cl)=C2Cl)cc1
Second: Cc1ccc2c(n1)C(=O)c1[nH]c3ccccc3c1C2=O
The TGI of the first is lower: 8.35 µM for the first, > 100 µM for the second.

Going from `C=CC(Br)(CBr)CCC(Cl)C(C)C` (stereo unspecified) to `CC(=O)Oc1cccc2c(/C=N/NC(N)=S)ncc(C)c12`, the TGI rises from 14.1 µM to 33.6 µM (2.4-fold).

`Cc1nc(N)sc1-c1ccnc(Nc2ccc(N3CCOCC3)cc2)n1` and `c1ccc(N=C2SC(=NC3CCCCC3)N(C3CCCCC3)C2=Nc2ccccc2)cc1` cannot be ordered by TGI: > 100 µM for the first, > 100 µM for the second.

For `NNC(N)Nc1ccccc1` (stereo unspecified), the TGI was > 100 µM.

Tested on: MDA-MB-435
Test: DTP human tumour cell line panel, 48 h

`Cc1ccc2c(n1)C(=O)c1[nH]c3ccccc3c1C2=O` and `Cc1nc(N)sc1-c1ccnc(Nc2ccc(N3CCOCC3)cc2)n1` are within 1.5-fold of each other in GI50: 1.59 µM for the first, 1.86 µM for the second.

Compared with `Cc1ccc2c(n1)C(=O)c1[nH]c3ccccc3c1C2=O`, `Cc1nc(N)sc1-c1ccnc(Nc2ccc(N3CCOCC3)cc2)n1` is 12-fold higher in TGI: 2.94 µM for the first, 36.7 µM for the second.

Going from `C=CC(Br)(CBr)CCC(Cl)C(C)C` (stereo unspecified) to `CC(=O)Oc1cccc2c(/C=N/NC(N)=S)ncc(C)c12`, the TGI rises from 3.5 µM to > 45.9 µM.

`NNC(N)Nc1ccccc1` (stereo unspecified) and `c1ccc(N=C2SC(=NC3CCCCC3)N(C3CCCCC3)C2=Nc2ccccc2)cc1` cannot be ordered by TGI: > 100 µM for the first, > 100 µM for the second.

Tested on: DMS 114 small cell lung
Test: DTP human tumour cell line panel, 48 h

First: COc1ccccc1C1C(C(=O)O)=C(CO)Oc2cc3c(cc21)OCO3 (stereo unspecified)
Second: Cc1ccc(S(=O)(=O)Oc2cc(-c3ccccc3)nc3ccccc23)cc1
The TGI of the first is higher: > 100 µM for the first, 1.24 µM for the second.

Going from `O=C(OC(=O)n1ccc2ccccc21)n1ccc2ccccc21` to `Cc1cc(=O)[nH]c(NN2C(Cl)C(=O)C2c2cccc(O)c2)n1` (stereo unspecified), the TGI falls from > 100 µM to 34.8 µM.

Going from `CC(=O)OC1CCC2(C)C3CCC4(C)C(c5ccc(=O)oc5)CC5OC54C3CCC2(O)C1` (stereo unspecified) to `O=NN(CCCl)C(=O)NC1CCSc2ccccc21` (stereo unspecified), the TGI rises from 0.69 µM to > 100 µM.

With `CC1CC=CC(O)C1` (stereo unspecified) the TGI was > 100 µM.

Tested on: SR leukemia
Test: DTP human tumour cell line panel, 48 h

Going from `O=[N+]([O-])c1ccc(C=C2C(Cl)=C(Cl)C(Cl)=C2Cl)cc1` to `Cc1nc(N)sc1-c1ccnc(Nc2ccc(N3CCOCC3)cc2)n1`, the GI50 falls from 2.04 µM to 0.346 µM (5.9-fold).

`O=[N+]([O-])c1ccc(C=C2C(Cl)=C(Cl)C(Cl)=C2Cl)cc1` and `Cc1nc(N)sc1-c1ccnc(Nc2ccc(N3CCOCC3)cc2)n1` are within 1.5-fold of each other in TGI: 7.75 µM for the first, 5.39 µM for the second.

First: C=CC(Br)(CBr)CCC(Cl)C(C)C (stereo unspecified)
Second: CC(=O)Oc1cccc2c(/C=N/NC(N)=S)ncc(C)c12
The TGI of the first is lower: 2.38 µM for the first, > 65.9 µM for the second.

`Cc1cc(=O)[nH]c(NN2C(Cl)C(=O)C2c2cccc(O)c2)n1` (stereo unspecified) and `NNC(N)Nc1ccccc1` (stereo unspecified) cannot be ordered by TGI: > 100 µM for the first, > 100 µM for the second.

In the case of `c1ccc(N=C2SC(=NC3CCCCC3)N(C3CCCCC3)C2=Nc2ccccc2)cc1`, the TGI is reported as > 100 µM.

Tested on: M14 melanoma
Test: DTP human tumour cell line panel, 48 h

Going from `COc1ccccc1C1C(C(=O)O)=C(CO)Oc2cc3c(cc21)OCO3` (stereo unspecified) to `CC(=O)Oc1cccc2c(/C=N/NC(N)=S)ncc(C)c12`, the TGI falls from > 100 µM to 3.18 µM.

Going from `C=CC(Br)(CBr)CCC(Cl)C(C)C` (stereo unspecified) to `Cc1cc(=O)[nH]c(NN2C(Cl)C(=O)C2c2cccc(O)c2)n1` (stereo unspecified), the TGI rises from 3.18 µM to > 100 µM.

`Cc1nc(N)sc1-c1ccnc(Nc2ccc(N3CCOCC3)cc2)n1` and `c1ccc(N=C2SC(=NC3CCCCC3)N(C3CCCCC3)C2=Nc2ccccc2)cc1` cannot be ordered by TGI: > 100 µM for the first, > 100 µM for the second.

`NNC(N)Nc1ccccc1` (stereo unspecified) was tested, and the TGI was > 100 µM.

For `Cc1nc(N)sc1-c1ccnc(Nc2ccc(N3CCOCC3)cc2)n1`, the GI50 was 2.66 µM.

Tested on: DU-145 prostate
Test: DTP human tumour cell line panel, 48 h

First: Cc1ccc2c(n1)C(=O)c1[nH]c3ccccc3c1C2=O
Second: Cc1nc(N)sc1-c1ccnc(Nc2ccc(N3CCOCC3)cc2)n1
The GI50 of the first is 2.5-fold lower: 1.19 µM for the first, 2.99 µM for the second.

First: Cc1ccc2c(n1)C(=O)c1[nH]c3ccccc3c1C2=O
Second: Cc1nc(N)sc1-c1ccnc(Nc2ccc(N3CCOCC3)cc2)n1
The TGI of the first is lower: 2.53 µM for the first, > 100 µM for the second.

Compared with `C=CC(Br)(CBr)CCC(Cl)C(C)C` (stereo unspecified), `CC(=O)Oc1cccc2c(/C=N/NC(N)=S)ncc(C)c12` is 2-fold higher in TGI: 8.69 µM for the first, 17.8 µM for the second.

`NNC(N)Nc1ccccc1` (stereo unspecified) and `c1ccc(N=C2SC(=NC3CCCCC3)N(C3CCCCC3)C2=Nc2ccccc2)cc1` cannot be ordered by TGI: > 100 µM for the first, > 100 µM for the second.

Tested on: HCT-116 colon
Test: DTP human tumour cell line panel, 48 h

`O=[N+]([O-])c1ccc(C=C2C(Cl)=C(Cl)C(Cl)=C2Cl)cc1` and `Cc1nc(N)sc1-c1ccnc(Nc2ccc(N3CCOCC3)cc2)n1` are within 1.5-fold of each other in GI50: 1.79 µM for the first, 1.52 µM for the second.

Going from `O=[N+]([O-])c1ccc(C=C2C(Cl)=C(Cl)C(Cl)=C2Cl)cc1` to `Cc1ccc(S(=O)(=O)Oc2cc(-c3ccccc3)nc3ccccc23)cc1`, the TGI rises from 3.37 µM to 15.9 µM (4.7-fold).

`O=C(OC(=O)n1ccc2ccccc21)n1ccc2ccccc21` and `c1ccc(N=C2SC(=NC3CCCCC3)N(C3CCCCC3)C2=Nc2ccccc2)cc1` cannot be ordered by TGI: > 100 µM for the first, > 100 µM for the second.

First: C=CC(Br)(CBr)CCC(Cl)C(C)C (stereo unspecified)
Second: O=NN(CCCl)C(=O)NC1CCSc2ccccc21 (stereo unspecified)
The TGI of the first is lower: 12 µM for the first, > 100 µM for the second.

`Cc1nc(N)sc1-c1ccnc(Nc2ccc(N3CCOCC3)cc2)n1` and `Cc1cc(=O)[nH]c(NN2C(Cl)C(=O)C2c2cccc(O)c2)n1` (stereo unspecified) cannot be ordered by TGI: > 100 µM for the first, > 100 µM for the second.

First: CC(=O)Oc1cccc2c(/C=N/NC(N)=S)ncc(C)c12
Second: CC(=O)OC1CCC2(C)C3CCC4(C)C(c5ccc(=O)oc5)CC5OC54C3CCC2(O)C1 (stereo unspecified)
The TGI of the first is 7.1-fold higher: 32.6 µM for the first, 4.61 µM for the second.

For `CC1CC=CC(O)C1` (stereo unspecified), the TGI was > 100 µM.

Tested on: ACHN renal
Test: DTP human tumour cell line panel, 48 h

Going from `COc1ccccc1C1C(C(=O)O)=C(CO)Oc2cc3c(cc21)OCO3` (stereo unspecified) to `Cc1ccc2c(n1)C(=O)c1[nH]c3ccccc3c1C2=O`, the TGI falls from > 100 µM to 18.6 µM.

Compared with `C=CC(Br)(CBr)CCC(Cl)C(C)C` (stereo unspecified), `CC(=O)Oc1cccc2c(/C=N/NC(N)=S)ncc(C)c12` is 3.1-fold lower in TGI: 8.49 µM for the first, 2.7 µM for the second.

`Cc1nc(N)sc1-c1ccnc(Nc2ccc(N3CCOCC3)cc2)n1` and `Cc1cc(=O)[nH]c(NN2C(Cl)C(=O)C2c2cccc(O)c2)n1` (stereo unspecified) cannot be ordered by TGI: > 100 µM for the first, > 100 µM for the second.

In the case of `NNC(N)Nc1ccccc1` (stereo unspecified), the TGI is reported as > 100 µM.

Compared with `Cc1ccc2c(n1)C(=O)c1[nH]c3ccccc3c1C2=O`, `Cc1nc(N)sc1-c1ccnc(Nc2ccc(N3CCOCC3)cc2)n1` is 2.6-fold lower in GI50: 2.1 µM for the first, 0.8 µM for the second.

Tested on: T-47D breast
Test: DTP human tumour cell line panel, 48 h

Compared with `O=[N+]([O-])c1ccc(C=C2C(Cl)=C(Cl)C(Cl)=C2Cl)cc1`, `Cc1ccc2c(n1)C(=O)c1[nH]c3ccccc3c1C2=O` is 4-fold lower in GI50: 2.16 µM for the first, 0.537 µM for the second.

Molecule `Cc1nc(N)sc1-c1ccnc(Nc2ccc(N3CCOCC3)cc2)n1` has a GI50 of 2.92 µM.

Going from `O=[N+]([O-])c1ccc(C=C2C(Cl)=C(Cl)C(Cl)=C2Cl)cc1` to `Cc1ccc2c(n1)C(=O)c1[nH]c3ccccc3c1C2=O`, the TGI rises from 5.46 µM to 17.9 µM (3.3-fold).

Compared with `Cc1nc(N)sc1-c1ccnc(Nc2ccc(N3CCOCC3)cc2)n1`, `CC(=O)Oc1cccc2c(/C=N/NC(N)=S)ncc(C)c12` is lower in TGI: > 100 µM for the first, 31.3 µM for the second.

`NNC(N)Nc1ccccc1` (stereo unspecified) and `c1ccc(N=C2SC(=NC3CCCCC3)N(C3CCCCC3)C2=Nc2ccccc2)cc1` cannot be ordered by TGI: > 100 µM for the first, > 100 µM for the second.

Tested on: BT-549 breast
Test: DTP human tumour cell line panel, 48 h

Compared with `O=[N+]([O-])c1ccc(C=C2C(Cl)=C(Cl)C(Cl)=C2Cl)cc1`, `Cc1nc(N)sc1-c1ccnc(Nc2ccc(N3CCOCC3)cc2)n1` is 3-fold lower in GI50: 4.75 µM for the first, 1.56 µM for the second.

`O=[N+]([O-])c1ccc(C=C2C(Cl)=C(Cl)C(Cl)=C2Cl)cc1` and `Cc1nc(N)sc1-c1ccnc(Nc2ccc(N3CCOCC3)cc2)n1` cannot be ordered by TGI: > 100 µM for the first, > 100 µM for the second.

Going from `C=CC(Br)(CBr)CCC(Cl)C(C)C` (stereo unspecified) to `CC(=O)Oc1cccc2c(/C=N/NC(N)=S)ncc(C)c12`, the TGI rises from 2.96 µM to 12.3 µM (4.2-fold).

`NNC(N)Nc1ccccc1` (stereo unspecified) and `c1ccc(N=C2SC(=NC3CCCCC3)N(C3CCCCC3)C2=Nc2ccccc2)cc1` cannot be ordered by TGI: > 100 µM for the first, > 100 µM for the second.
